Key:
[1] = biological target: T1, recombinant human Meningioma Expressed Antigen 5 (MGEA5), also referred to as O-GlcNAcase (OGA) (Homo sapiens, UniProt O60502); assay: OGA biochemical assay: inhibition of hydrolysis of fluorescein mono-ß-D-N-Acetyl-Glucosamine (FM-GlcNAc), fluorescence readout; details: FM-GlcNAc substrate; for Emax: read-out: Enzymatic Emax (%); for IC50: read-out: Enzymatic hOGA, pIC50 (converted)
T1 construct: Full length OGA enzyme was purchased at OnGene (cat #TP322411); purchased OnGene (so in the source)
T1 sequence (O60502 1-916): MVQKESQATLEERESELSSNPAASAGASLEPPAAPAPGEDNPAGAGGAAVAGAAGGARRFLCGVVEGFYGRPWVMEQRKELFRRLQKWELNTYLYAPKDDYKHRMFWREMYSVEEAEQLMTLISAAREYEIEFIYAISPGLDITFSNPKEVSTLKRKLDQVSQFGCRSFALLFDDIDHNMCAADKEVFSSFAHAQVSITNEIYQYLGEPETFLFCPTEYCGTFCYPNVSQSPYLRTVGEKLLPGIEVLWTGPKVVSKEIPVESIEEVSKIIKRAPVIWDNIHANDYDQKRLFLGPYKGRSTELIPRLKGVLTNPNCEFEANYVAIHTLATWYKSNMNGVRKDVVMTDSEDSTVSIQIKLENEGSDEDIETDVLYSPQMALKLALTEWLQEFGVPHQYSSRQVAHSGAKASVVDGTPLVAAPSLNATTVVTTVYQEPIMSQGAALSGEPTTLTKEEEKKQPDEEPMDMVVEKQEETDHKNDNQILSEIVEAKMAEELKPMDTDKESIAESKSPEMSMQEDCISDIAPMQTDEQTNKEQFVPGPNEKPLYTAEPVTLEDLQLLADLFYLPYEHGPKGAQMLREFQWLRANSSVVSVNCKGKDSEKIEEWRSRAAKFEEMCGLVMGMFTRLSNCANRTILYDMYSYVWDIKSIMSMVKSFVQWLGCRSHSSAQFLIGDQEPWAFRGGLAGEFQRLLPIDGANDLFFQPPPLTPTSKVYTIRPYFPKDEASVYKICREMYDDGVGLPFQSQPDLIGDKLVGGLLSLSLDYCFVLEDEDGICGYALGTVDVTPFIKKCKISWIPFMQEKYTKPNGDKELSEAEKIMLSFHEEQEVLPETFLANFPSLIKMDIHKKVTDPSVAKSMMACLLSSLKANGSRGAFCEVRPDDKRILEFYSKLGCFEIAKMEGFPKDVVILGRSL
Text: The assay is based on the inhibition of the hydrolysis of fluorescein mono-ß-D-N-Acetyl-Glucosamine (FM-GlcNAc) (Mariappa et al. 2015, Biochem J 470:255) by the recombinant human Meningioma Expressed Antigen 5 (MGEA5), also referred to as O-GlcNAcase (OGA). The hydrolysis FM-GlcNAc (Marker Gene technologies, cat #M1485) results in the formation of ß-D-N-glucosamineacetate and fluorescein. The fluorescence of the latter can be measured at excitation wavelength 485 nm and emission wavelength 538 nm. An increase in enzyme activity results in an increase in fluorescence signal. Full length OGA enzyme was purchased at OnGene (cat #TP322411). The enzyme was stored in 25 mM Tris.HCl, pH 7.3, 100 mM glycine, 10% glycerol at −20° C. Thiamet G and GlcNAcStatin were tested as reference compounds (Yuzwa et al. 2008 Nature Chemical Biology 4:483; Yuzwa et al. 2012 Nature Chemical Biology 8:393). The assay was performed in 200 mM Citrate/phosphate buffer supplemented with 0.005% Tween-20. 35.6 g Na2HPO4 2 H2O (Sigma, #C0759) were dissolved in 1 L water to obtain a 200 mM solution. 19.2 g citric acid (Merck, #1.06580) was dissolved in 1 L water to obtain a 100 mM solution. pH of the sodium phosphate solution was adjusted with the citric acid solution to 7.2. The buffer to stop the reaction consists of a 500 mM Carbonate buffer, pH 11.0. 734 mg FM-GlcNAc were dissolved in 5.48 mL DMSO to obtain a 250 mM solution and was stored at −20° C. OGA was used at a 2 nM concentration and FM-GlcNAc at a 100 uM final concentration. Dilutions were prepared in assay buffer. 50 nl of a compound dissolved in DMSO was dispensed on Black Proxiplate™ 384 Plus Assay plates (Perkin Elmer, #6008269) and 3 μl fl-OGA enzyme mix added subsequently. Plates were pre-incubated for 60 min at room temperature and then 2 μl FM-GlcNAc substrate mix added. […] Plates were briefly centrifuged for 1 min at 1000 rpm and incubate at room temperature for 6 h. To stop the reaction 5 μl STOP buffer were added and plates centrifuge again 1 min at 1000 rpm. Fluorescence was quantified in the Thermo Scientific Fluoroskan Ascent or the PerkinElmer EnVision with excitation wavelength 485 nm and emission wavelength 538 nm. For analysis a best-fit curve is fitted by a minimum sum of squares method. From this an IC50 value and Hill coefficient was obtained. High control (no inhibitor) and low control (saturating concentrations of standard inhibitor) were used to define the minimum and maximum values.

[2] = tested on: OGA in HEK293 cells inducible for P301L mutant human Tau (isoform 2N4R); assay: OGA cellular assay: immunocytochemical detection of O-GlcNAcylated proteins (CTD110.6 antibody); type: cell-based; details: Homo sapiens, HEK293, 6 h, 6 hours incubation; for Emax: maximum = Thiamet G 200 uM; for EC50: read-out: Cellular hOGA, pEC50 (converted)
Method: HEK293 cells inducible for P301L mutant human Tau (isoform 2N4R) were established at Janssen. Thiamet-G was used for both plate validation (high control) and as reference compound (reference EC50 assay validation). OGA inhibition is evaluated through the immunocytochemical (ICC) detection of O-GlcNAcylated proteins by the use of a monoclonal antibody (CTD110.6; Cell Signaling, #9875) detecting 0-GlcNAcylated residues as previously described (Dorfmueller et al. 2010 Chemistry & biology, 17:1250). Inhibition of OGA will result in an increase of O-GlcNAcylated protein levels resulting in an increased signal in the experiment. Cell nuclei are stained with Hoechst to give a cell culture quality control and a rough estimate of immediate compounds toxicity, if any. ICC pictures are imaged with a Perkin Elmer Opera Phenix plate microscope and quantified with the provided software Perkin Elmer Harmony 4.1.
Cells were propagated in DMEM high Glucose (Sigma, #D5796) following standard procedures. 2 days before the cell assay cells are split, counted and seeded in Poly-D-Lysine (PDL) coated 96-wells (Greiner, #655946) plate at a cell density of 12,000 cells per cm^2 (4,000 cells per well) in 100p of Assay Medium (Low Glucose medium is used to reduce basal levels of GlcNAcylation) (Park et al. 2014 The Journal of biological chemistry 289:13519). At the day of compound test medium from assay plates was removed and replenished with 90 µl of fresh Assay Medium. 10p of compounds at a 10 fold final concentration were added to the wells. Plates were centrifuged shortly before incubation in the cell incubator for 6 hours. DMSO concentration was set to 0.2%. Medium is discarded by applying vacuum. For staining of cells medium was removed and cells washed once with 100 μl D-PBS (Sigma, #D8537). From next step onwards unless other stated assay volume was always 50p and incubation was performed without agitation and at room temperature. Cells were fixed in 50 μl of a 4% paraformaldehyde (PFA, Alpha aesar, #043368) PBS solution for 15 minutes at room temperature. […] Before analysis samples were washed 2 times manually for 5 minutes in ICC base buffer.
Imaging is performed using Perkin Elmer Phenix Opera using a water 20× objective and recording 9 fields per well. Intensity readout at 488 nm is used as a measure of O-GlcNAcylation level of total proteins in wells. To assess potential toxicity of compounds nuclei were counted using the Hoechst staining. IC50-values are calculated using parametric non-linear regression model fitting. As a maximum inhibition Thiamet G at a 200 uM concentration is present on each plate. In addition, a concentration response of Thiamet G is calculated on each plate.

| SMILES | Enzymatic hOGA; pIC50 [1] | Emax [1] [%] | Emax [2] [%] | EC50 [2] [µM] | IC50 [1] [µM] |
| --- | --- | --- | --- | --- | --- |
| Cc1cncc(C(C)(C)O)c1Nc1nccc2c1ccn2CC1CCO1 (centres unmarked) [Compound 125] | 7.91 | 103 | 74.8 | 0.0437 | – |
| CCCCn1ccc2c(Nc3c(C)cc4c(cnn4C)c3C)nccc21 [Compound 87] | – | 102 | 87 | 0.0129 | 0.00479 |
| CCCCn1ccc2c(Nc3c(C)ccc4c3nc(C)n4C)nccc21 [Compound 206] | – | 101 | 63.7 | 0.661 | 0.0513 |
| CCCCn1ccc2c(Nc3c(F)cncc3C(C)C)nccc21 [Compound 46] | – | 99 | 67 | 0.251 | 0.0178 |
| CCCCn1ccc2c(Nc3c(Cl)ccc4c3ccn4C)nccc21 [Compound 14] | 8.54 | 103 | 80 | 0.182 | – |
| Cc1ccnc(C(C)C)c1Nc1nccc2c1ccn2CC1CCO1 (centres unmarked) [Compound 160] | 8.67 | 103 | 96 | 0.00813 | – |
| CCCCn1ccc2c(Nc3c(C)cc4c(c3C)C(=O)N(C)C4)nccc21 [Compound 45] | – | 103 | 87 | 0.0166 | 0.0105 |
| Cn1ccc(-n2ccc3c(Nc4c(Cl)cc(F)cc4Cl)nccc32)n1 [Compound 184] | – | 101 | 46.5 | 0.912 | 0.0794 |
| CCCCn1ccc2c(Nc3c(C)cc4c(c3C)OCCO4)nccc21 [Compound 53] | – | 105 | 82 | 0.0204 | 0.00186 |
| CCCCn1ccc2c(Nc3c(F)cncc3C3CC3)nccc21 [Compound 43] | – | 99 | 50 | 0.676 | 0.024 |
| Cc1cc(C(F)(F)F)cc(C)c1Nc1nccc2c1ccn2CC(F)(F)C(C)C [Compound 176] | – | 103 | 101 | 0.0055 | 0.00155 |
| Clc1cccc(Cl)c1Nc1nccc2c1ccn2Cc1ccon1 [Compound 172] | – | 102 | 80.8 | 0.0708 | 0.00339 |
| Cc1ccnc(C)c1Nc1nccc2c1ccn2CC1(F)CC1 [Compound 204] | – | 101 | 76.1 | 0.269 | 0.0575 |
| Cc1cncc(C)c1Nc1nccc2c1ccn2CCC(C)C [Compound 48] | – | 102 | 86 | 0.0309 | 0.0107 |
| Cc1cc(C)c(Nc2nccc3c2ccn3CC(C)(F)F)c(OC(F)F)n1 [Compound 156] | 8.07 | 102 | 70.9 | 0.0457 | – |
| Cc1ccnc(OC(F)F)c1Nc1nccc2c1ccn2CC(C)(F)F [Compound 132] | 7.94 | 99.7 | 82.2 | 0.11 | – |
| Cc1ccnc(C(C)C)c1Nc1nccc2c1ccn2CC(C)(F)F [Compound 147] | 8.81 | 98.6 | 90.9 | ~0.00447 | – |
| CCCC(C)n1ccc2c(Nc3c(Cl)cccc3Cl)nccc21 (centres unmarked) [Compound 39] | – | 102 | 56 | 0.692 | 0.0537 |
| Cc1ccnc(C)c1Nc1nccc2c1ccn2CC1CCCO1 (centres unmarked) [Compound 137] | 7.14 | 99.1 | 60.4 | 0.513 | – |
| Cc1cc(C(F)(F)F)cc(C(C)C)c1Nc1nccc2c1ccn2CC1CCO1 (centres unmarked) [Compound 161] | 8.58 | 104 | 88.8 | 0.00676 | – |
| Cc1cc(F)cc(C(C)C)c1Nc1nccc2c1ccn2CC1CC(F)(F)C1 [Compound 171] | – | 103 | 73.8 | 0.0389 | 0.00603 |
| Cc1cc(F)cc(C)c1Nc1nccc2c1ccn2CC1CC(F)(F)C1 [Compound 170] | – | 100 | 78.6 | 0.0832 | 0.0275 |
| CCCCn1ccc2c(Nc3c(C)ccc4[nH]c(C)nc34)nccc21 [Compound 11] | 7.06 | 100 | 80 | 0.288 | – |
| Cc1ccnc(C(F)F)c1Nc1nccc2c1ccn2CC1CCO1 (centres unmarked) [Compound 81] | – | 102 | 74 | 0.102 | 0.00955 |
| CCCCn1ccc2c(Nc3c(C)cncc3C(C)C)nccc21 [Compound 63] | – | 103 | 93 | 0.0123 | 0.00288 |
| Cc1cc(OC(F)F)nc(C)c1Nc1nccc2c1ccn2CC(F)(F)C(C)C [Compound 188] | – | 100 | 89.1 | ~0.00437 | 0.00162 |
